Drawing on US20260265244A1, “HETEROCYCLIC COMPOUNDS AS STING ANTAGONISTS” (Boehringer Ingelheim International GmbH, priority 2022, published 2026), this text covers IC50 for 22 molecules.

In assay [1] the test system is STING inhibition in human whole blood (IFNα2α production). As to the kind of experiment: Human whole blood assay (HWBA): cGAMP-stimulated IFNα2α production. The assay is classed as cell-based. The conditions noted are these: Homo sapiens. The method in brief:
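Na-citrate human whole blood from ≥3 healthy donors, preincubated 60 min at room temperature with compound (8 concentrations, top 10 μM, ~1:5 steps, 0.1% DMSO), then stimulated with cGAMP and incubated 22 h at 37 °C. Plasma IFNα2α measured by MSD immunoassay; % control versus stimulated/unstimulated wells, IC50 by 4-parameter logistic fit.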

Another assay concerns the target T1, human STING WT (R232) (Homo sapiens, UniProt Q86WV6, H232R).
T1 construct: purchased Cisbio 64BDSTGPEG
As to the kind of experiment: Human STING HTRF binding assay (competitive, Cisbio 64BDSTGPEG). The method in brief:
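Competitive HTRF: 6His-tagged human STING WT R232 binding domain (residues 138-379) with anti-6His Cryptate antibody and d2-labeled STING ligand, 180 min at room temperature, 1% DMSO, 8 concentrations from 10 μM or 1 μM top in ~1:5 steps. HTRF ratios were calibrated to a cGAMP standard curve and IC50 obtained by 4-parameter logistic fit.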
Background: TR-FRET usually uses a lanthanide donor and a delayed reading to cut background.

T1 sequence (Q86WV6 138-379 H232R): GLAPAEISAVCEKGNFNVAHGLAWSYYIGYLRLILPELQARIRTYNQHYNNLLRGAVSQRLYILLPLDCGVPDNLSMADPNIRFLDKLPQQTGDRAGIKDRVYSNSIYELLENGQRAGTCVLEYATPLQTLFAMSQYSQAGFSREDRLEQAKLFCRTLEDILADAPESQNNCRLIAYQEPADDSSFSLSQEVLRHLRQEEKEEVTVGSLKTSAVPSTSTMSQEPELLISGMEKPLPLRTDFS

Regarding `Cc1c(C2CC2)c(-c2c(F)ccc3nn(C[C@H](O)c4ccccc4)cc23)nn1-c1cc2cn(C)nc2nc1C1CC1` [Example 35, (1R)-2-[4-(4-cyclopropyl-1-{6-cyclopropyl-2-methyl-2H-pyrazolo[3,4-b]pyridin-5-yl}-5-methyl-1H-pyrazol-3-yl)-5-fluoro-2H-indazol-2-yl]-1-phenylethan-1-ol], the IC50 (commonly the concentration needed to halve the response being measured) in assay [1] came to 130 nM; at human STING WT (R232) it was 19.3 nM.
With `Cn1cc2cc(-c3nc(-c4cccc5nn(C[C@H](O)c6ccc(OCC7CCOCC7)cc6)cc45)c(C4CC4)n3C)c(C3CC3)nc2n1` [Example 68], the IC50 is 350 nM in assay [1] and 17.7 nM at human STING WT (R232).
In the case of `Cc1nc2cc(C)c(-n3nc(-c4cccc5nn(C[C@H](O)c6ccccc6)cc45)c(C(C)C)c3C)cc2[nH]1` [Example 105, (1R)-2-{4-[1-(2,5-dimethyl-1H-1,3-benzodiazol-6-yl)-5-methyl-4-(propan-2-yl)-1H-pyrazol-3-yl]-2H-indazol-2-yl}-1-phenylethan-1-ol], the IC50 in assay [1] was determined as 1600 nM; on human STING WT (R232) it was 78.1 nM.
For `CCCn1cc2cc(-c3nc(-c4cccc5nn(CC(F)(F)c6ccccc6)cc45)c(C4CC4)n3C)c(C3CC3)nc2n1` [Example 48, 4-(5-cyclopropyl-2-{6-cyclopropyl-2-propyl-2H-pyrazolo[3,4-b]pyridin-5-yl}-1-methyl-1H-imidazol-4-yl)-2-(2,2-difluoro-2-phenylethyl)-2H-indazole], the values for the IC50 (in assay [1]; at human STING WT (R232)) were 150 nM and 22.7 nM, respectively.
As to `Cc1c(C(C)C)c(-c2cccc3nn(C[C@H](O)c4ccccc4)cc23)nn1-c1cc2cn(C)nc2nc1C1CCC1` [Example 53, (1R)-2-[4-(1-{6-cyclobutyl-2-methyl-2H-pyrazolo[3,4-b]pyridin-5-yl}-5-methyl-4-(propan-2-yl)-1H-pyrazol-3-yl)-2H-indazol-2-yl]-1-phenylethan-1-ol], the IC50 in assay [1] is 190 nM; on human STING WT (R232), 28.6 nM.
As to `Cc1nc2nn(C)cc2cc1-n1nc(-c2cccc3nn(C[C@H](O)c4ccc(F)c(F)c4)cc23)c(C(C)C)c1C` [Example 44, (1R)-1-(3,4-difluorophenyl)-2-[4-(1-{2,6-dimethyl-2H-pyrazolo[3,4-b]pyridin-5-yl}-5-methyl-4-(propan-2-yl)-1H-pyrazol-3-yl)-2H-indazol-2-yl]ethan-1-ol], the values for the IC50 (in assay [1]; at human STING WT (R232)) were 140 nM and 16.9 nM, respectively.
`CNC(=O)CO[C@@H](Cn1cc2c(-c3nn(-c4cc5cn(C)nc5nc4C)c(C)c3C(C)C)cccc2n1)c1ccccc1` [Example 36, 2-[(1R)-2-[4-(1-{2,6-dimethyl-2H-pyrazolo[3,4-b]pyridin-5-yl)-5-methyl-4-(propan-2-yl)-1H-pyrazol-3-yl)-2H-indazol-2-yl]-1-phenylethoxy]-N-methylacetamide]: the IC50 was found to be 130 nM in assay [1] and 14.6 nM on human STING WT (R232).
As to `CCO[C@@H](Cn1cc2c(-c3nn(-c4cc5cn(C)nc5nc4C)c(C)c3C(C)C)cccc2n1)c1ccccc1` [Example 30, 4-(1-{2,6-dimethyl-2H-pyrazolo[3,4-b]pyridin-5-yl}-5-methyl-4-(propan-2-yl)-1H-pyrazol-3-yl)-2-[(2R)-2-ethoxy-2-phenylethyl]-2H-indazole], the IC50 in assay [1] came out at 110 nM; on human STING WT (R232), 18.2 nM.
For `Cc1nc2nn(C(C)C)cc2cc1-n1nc(-c2cccc3nn(C[C@H](O)c4ccccc4)cc23)c(C(C)C)c1C` [Example 18, (1R)-2-(4-{5-methyl-1-[6-methyl-2-(propan-2-yl)-2H-pyrazolo[3,4-b]pyridin-5-yl]-4-(propan-2-yl)-1H-pyrazol-3-yl}-2H-indazol-2-yl)-1-phenylethan-1-ol], the IC50 in assay [1] came to 81 nM; at human STING WT (R232), 14.6 nM.
The corresponding values for `Cc1c(C(C)C)c(-c2cccc3nn(C[C@H](O)c4ccccc4)cc23)nn1-c1cc2cn(C)nc2nc1CN1CCOCC1` [Example 26, (1R)-2-[4-(5-methyl-1-{2-methyl-6-[(morpholin-4-yl)methyl]-2H-pyrazolo[3,4-b]pyridin-5-yl}-4-(propan-2-yl)-1H-pyrazol-3-yl)-2H-indazol-2-yl]-1-phenylethan-1-ol] are 110 nM and 42.8 nM.
Consider `Cc1nc2nn(CC3CC3)cc2cc1-n1nc(-c2cccc3nn(C[C@H](O)c4ccccc4)cc23)c(C(C)C)c1C` [Example 56, (1R)-2-(4-{1-[2-(cyclopropylmethyl)-6-methyl-2H-pyrazolo[3,4-b]pyridin-5-yl]-5-methyl-4-(propan-2-yl)-1H-pyrazol-3-yl}-2H-indazol-2-yl)-1-phenylethan-1-ol], for which the IC50 in assay [1] amounted to 210 nM; on human STING WT (R232) it was 18.1 nM.
As to `Cc1nc2nn(C)cc2cc1-n1nc(-c2cccc3nn(C[C@H](OCC(N)=O)c4ccccc4)cc23)c(C(C)C)c1C` [Example 108, 2-[(1R) -2-[4-(1-{2,6-dimethyl-2H-pyrazolo[3,4-b]pyridin-5-yl}-5-methyl-4-(propan-2-yl)-1H-pyrazol-3-yl)-2H-indazol-2-yl]-1-phenylethoxy]acetamide], the IC50 in assay [1] was determined as 38 nM; on human STING WT (R232), 5.8 nM.
The corresponding values for `Cc1nc2nn(CC#N)cc2cc1-n1nc(-c2cccc3nn(C[C@H](O)c4ccccc4)cc23)c(C(C)C)c1C` [Example 98, 2-[5-(3-{2-[(2R)-2-hydroxy-2-phenylethyl]-2H-indazol-4-yl}-5-methyl-4-(propan-2-yl)-1H-pyrazol-1-yl)-6-methyl-2H-pyrazolo[3,4-b]pyridin-2-yl]acetonitrile] are 31 nM and 3.1 nM.
As to `Cc1nc2nn(CCCC#N)cc2cc1-n1nc(-c2cccc3nn(C[C@H](O)c4ccccc4)cc23)c(C(C)C)c1C` [Example 2, 4-[5-(3-{2-[(2R)-2-hydroxy-2-phenylethyl]-2H-indazol-4-yl}-5-methyl-4-(propan-2-yl)-1H-pyrazol-1-yl)-6-methyl-2H-pyrazolo[3,4-b]pyridin-2-yl]butanenitrile], the figures for the IC50 (in assay [1]; on human STING WT (R232)) were 54 nM and 15.8 nM, respectively.
For the molecule `CC(C)c1c(-c2cccc3nn(C[C@H](O)c4ccccc4)cc23)nc(-c2cc3cn(C)nc3cc2OC(F)(F)F)n1C` [Example 109, (1R)-2-(4-{1-methyl-2-[2-methyl-6-(trifluoromethoxy)-2H-indazol-5-yl]-5-(propan-2-yl)-1H-imidazol-4-yl}-2H-indazol-2-yl)-1-phenylethan-1-ol], the IC50 stood at 78 nM in assay [1] and 18.8 nM on human STING WT (R232).
For `Cc1nc2nn(C)cc2cc1-n1nc(-c2cccc3nn(C[C@H](O)c4ccc(F)cc4)cc23)c(C(C)C)c1C` [Example 46, (1R)-2-[4-(1-{2,6-dimethyl-2H-pyrazolo[3,4-b]pyridin-5-yl}-5-methyl-4-(propan-2-yl)-1H-pyrazol-3-yl)-2H-indazol-2-yl]-1-(4-fluorophenyl)ethan-1-ol] the same measures were 140 nM and 15.2 nM.
The corresponding values for `COCc1nc2nn(C)cc2cc1-n1nc(-c2cccc3nn(C[C@H](O)c4ccccc4)cc23)c(C(C)C)c1C` [Example 17, (1R)-2-(4-{1-[6-(methoxymethyl)-2-methyl-2H-pyrazolo[3,4-b]pyridin-5-yl]-5-methyl-4-(propan-2-yl)-1H-pyrazol-3-yl}-2H-indazol-2-yl)-1-phenylethan-1-ol] are 81 nM and 1.4 nM.
On to `Cc1nc2nn(CCCN3CCN(C)CC3)cc2cc1-n1nc(-c2cccc3nn(C[C@H](O)c4ccccc4)cc23)c(C(C)C)c1C` [Example 7, (1R)-2-[4-(5-methyl-1-{6-methyl-2-[3-(4-methylpiperazin-1-yl)propyl]-2H-pyrazolo[3,4-b]pyridin-5-yl}-4-(propan-2-yl)-1H-pyrazol-3-yl)-2H-indazol-2-yl]-1-phenylethan-1-ol], for which the IC50 was determined as 61 nM in assay [1] and 24.6 nM on human STING WT (R232).
For `Cc1nc2nn(C)cc2cc1-n1nc(-c2cccc3nn(C[C@H](OCCO)c4ccccc4)cc23)c(C(C)C)c1C` [Example 8, 2-[(1R)-2-[4-(1-{2,6-dimethyl-2H-pyrazolo[3,4-b]pyridin-5-yl}-5-methyl-4-(propan-2-yl)-1H-pyrazol-3-yl)-2H-indazol-2-yl]-1-phenylethoxy]ethan-1-ol] the same measures were 62 nM and 14.6 nM.
As to `Cc1nc2nn(CCCO)cc2cc1-n1nc(-c2cccc3nn(C[C@H](O)c4ccccc4)cc23)c(C(C)C)c1C` [Example 32, 3-[5-(3-{2-[(2R)-2-hydroxy-2-phenylethyl]-2H-indazol-4-yl}-5-methyl-4-(propan-2-yl)-1H-pyrazol-1-yl)-6-methyl-2H-pyrazolo[3,4-b]pyridin-2-yl]propan-1-ol], the figures for the IC50 (in assay [1]; on human STING WT (R232)) were 110 nM and 8.6 nM, respectively.
Turning to `Cn1cc2cc(-c3nc(-c4cccc5nn(C[C@H](O)c6ccc(OCCC(C)(C)O)cc6)cc45)c(C4CC4)n3C)c(C3CC3)nc2n1` [Example 41, 4-{4-[(1R)-2-[4-(5-cyclopropyl-2-{6-cyclopropyl-2-methyl-2H-pyrazolo[3,4-b]pyridin-5-yl}-1-methyl-1H-imidazol-4-yl)-2H-indazol-2-yl]-1-hydroxyethyl]phenoxy}-2-methylbutan-2-ol], the IC50 came out at 140 nM in assay [1] and 6.4 nM at human STING WT (R232).
`Cc1nc2nn(CCCN3CCC(F)(F)C3)cc2cc1-n1nc(-c2cccc3nn(C[C@H](O)c4ccccc4)cc23)c(C(C)C)c1C` [Example 40, (1R)-2-[4-(1-{2-[3-(3,3-difluoropyrrolidin-1-yl)propyl]-6-methyl-2H-pyrazolo[3,4-b]pyridin-5-yl}-5-methyl-4-(propan-2-yl)-1H-pyrazol-3-yl)-2H-indazol-2-yl]-1-phenylethan-1-ol]: the values for the IC50 (in assay [1]; at human STING WT (R232)) were 140 nM and 28.4 nM, respectively.
